The record followed here is US20250295608A1, “PHARMACEUTICAL COMPOSITIONS AND METHODS FOR TREATING OSTEOARTHRITIS” (INSIGNIA PHARMACEUTICALS, LLC, priority 2024, published 2025).

In one experiment the test system is SOX9. As to the kind of experiment: SOX9 relative expression in osteoarthritic chondrocytes (qRT-PCR, normalized to GAPDH). The class given is cell-based, human.
For the next experiment, the system named is PGE2. In words: IL-1β-induced PGE2 in osteoarthritic human synoviocytes. The class given is cell-based. The note with it: for PGE2 release: 200 nanomolar DA or 500 ng/mL IL-1RA, pretreatment 5 min, 1 h or 2 h, IL-1β 1 ng/mL for 10 minutes or 1 hour. As for the experimental part: FIG. 31A depicts early concentrations of PGE2 present in primary […] of varying concentrations of Dex and DA in view of controls. The concentrations in FIG. 31A were measured at hour three.
FIG. 31B is a bar graph depicting PGE2 release from human osteoarthritic synoviocytes treated with media, 200 nanomolar DA, or 500 nanograms/milliliter of IL-1 Receptor Antagonist (IL-1RA) for the specified pretreatment times at the bottom of each panel (5 minutes, 1 hour, or 2 hours, and then stimulated with 1 nanogram/milliliter IL-1β for either 10 minutes or 1 hour, as indicated. PGE2 in picograms/milliliter was released at detectable levels in each of the media treated samples, including the short 10-minute IL-1β stimulation conditions, implicating low level activation caused by a change of media. The media controls within each panel of treatments released increased PGE2 compared to DA treated cells. Cells were also treated with IL-IRA which inhibits IL-1β by binding […], effectively blocking IL-1β signaling. […] DA is able to incorporate into the cell membrane_and the immediate inhibition of signaling may reflect the ability of DA to change the biophysical properties of the cell membrane.
FIG. 33 illustrates two bar graphs that depict the concentrations of PGE2 inside of the cell versus PGE2 that was secreted into the cell culture media. Specifically, the bar graph labeled “Intracellular” illustrates the concentrations of PGE2 inside of the cell and the bar graph labeled “Supernatent” illustrates the concentration of PGE2 that was secreted into the cell culture media. Synoviocytes were stimulated with IL-1β for 6 hours and then cell culture media harvested separately along with collecting cell lysates. […] Specifically, treating osteoarthritic HSF cells with 1 ng/ml IL-1β final concentration causes the cells to secrete large amounts of PGE2 into the cell culture media. […] To test this, the PGE2 concentrations inside of the cells and in the cell culture media were measured to compare them directly to each other. […] Thus, without being bound by theory, it is believed that DA binds to or interacts with MRP4 proteins and prevents MRP4 from successfully transporting PGE2.

The test system of another experiment is prostaglandin D2 (PGD2). In words: IL-1β-induced PGD2 release in osteoarthritic human synoviocytes. The class given is cell-based. To be noted: IL-1β 0.5 ng/mL.
The subject of experiment [1] is interleukin-18, tumor necrosis factor, interleukin-8, and interleukin-6. In words: Other cytokines in two-hit stimulated THP1 macrophages. To be noted: dose dependent; data not shown. The class given is cell-based, human.
The test system of the next experiment is prostaglandin I2 (PGI2). In words: PGI2 in IL-1β-stimulated osteoarthritic synoviocytes. To be noted: IL-1β 1 ng/ml, 24 hours. Type of experiment: cell-based, human. As for the experimental part: FIG. 25 is a bar graph that depicts the concentration of prostaglandin I2 (PGI2) present in primary human synoviocytes from patients with osteoarthritis that were stimulated with 1 ng/ml final concentration of IL-1β for 24 hours in the presence of varying concentrations of DA and Dex in view of controls. PGI2 concentration response mirrored PGE2 concentrations after DA treatment. […] It is noted that prostaglandin H2 (PGH2) was also tested and was not detected in either cell culture media or from cell lysates. Without being bound by theory, it is believed that PGH2 is an intermediate and is (near) immediately converted into downstream prostaglandins and therefore levels of PGH2 are not detectable.

For a further experiment, the target named is T1, Cyclooxygenase-2 (COX-2) (Homo sapiens, UniProt P35354).
T1 sequence (P35354 18-604): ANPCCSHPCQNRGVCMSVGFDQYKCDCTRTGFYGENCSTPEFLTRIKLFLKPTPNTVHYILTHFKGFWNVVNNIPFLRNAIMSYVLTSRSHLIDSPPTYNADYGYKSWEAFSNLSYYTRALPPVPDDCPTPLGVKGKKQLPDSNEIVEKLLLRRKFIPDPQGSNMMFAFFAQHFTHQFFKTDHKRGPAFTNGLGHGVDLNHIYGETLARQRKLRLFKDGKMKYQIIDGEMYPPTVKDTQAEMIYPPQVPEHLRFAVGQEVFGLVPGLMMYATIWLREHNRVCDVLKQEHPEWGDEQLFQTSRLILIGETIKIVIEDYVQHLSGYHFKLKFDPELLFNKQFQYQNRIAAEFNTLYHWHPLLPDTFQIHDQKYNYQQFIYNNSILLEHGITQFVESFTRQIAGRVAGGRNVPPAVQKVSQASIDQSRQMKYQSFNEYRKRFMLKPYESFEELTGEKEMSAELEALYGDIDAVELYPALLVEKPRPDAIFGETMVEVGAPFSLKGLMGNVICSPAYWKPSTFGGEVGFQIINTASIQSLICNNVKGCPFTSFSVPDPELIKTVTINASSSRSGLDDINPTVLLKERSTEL
In words: COX-2 inhibitor screen. The class given is biochemical. The note with it: any of the concentrations tested.

For a further experiment, the system named is arachidonic acid (AA). In words: Arachidonic acid in IL-1β-stimulated osteoarthritic synoviocytes. The note with it: IL-1β 1 ng/mL, 3 hours; cell lysates. Type of experiment: cell-based, human. As for the experimental part: Early concentrations of arachidonic acid (AA) present in primary human synoviocytes from patients with osteoarthritis that were stimulated with 1 ng/mL final concentration interleukin 1-beta (B) for 3 hours in the presence of varying concentrations of Dex and DA in view of controls are depicted in FIG. 32. The concentrations of AA in FIG. 32 were normalized to total protein content from the cell lysates using bicinchoninic acid (BCA).

The subject of experiment [2] is IL-1β-induced PGE2 release. As to the kind of experiment: IL-1β-induced PGE2 release from normal human chondrocytes (competitive EIA). The class given is cell-based. To be noted: for inhibition at 10 µM: Homo sapiens, Chondrocyte; for inhibition at 10 µM / inhibition of PGE2 release: 25 uM Dec, singlet.
Another experiment has as its system MMP13. As to the kind of experiment: MMP13 relative expression in osteoarthritic chondrocytes (qRT-PCR). The class given is cell-based, human. The note with it: for Observed Relative expression of MMP13: 0.1% HA, 0.1 uM Dex. (In general: Real-time PCR tracks product formation cycle by cycle.)
The next experiment relates to SOX9 versus RUNX2. In words: Relative expression of SOX9 versus RUNX2 in osteoarthritic chondrocytes. Type of experiment: cell-based, human. The note with it: passage 5 human osteoarthritic chondrocytes, 27 days.
The subject of the next experiment is IL-1β release. As to the kind of experiment: Two-hit (LPS then ATP) inflammasome activation, IL-1β release from THP1 macrophages. To be noted: with 25 nanomolar Dex. The class given is cell-based, human.
[3] abbreviates: high passage, dedifferentiated osteoarthritic chondrocytes, TGF-β3, 14 days.
The mark [4] stands for this setting: low passage osteoarthritic chondrocytes, 7, 14, 28 days.
Setting [5] is: pre-incubation 24 hours, 24-hour harvest, 28 mM Lac, 10 uM LA.

By inhibition is commonly meant the change of the read-out against control, counted positive when it falls.

Entries after “also recorded” stand apart in the source; their conditions may differ.

Source text for Cyclooxygenase-2 (COX-2): Celecoxib (Celebrex) was used as a positive control for COX-2.
Source text for IL-1β release: A two-hit model of inflammasome activation in THP1 macrophages was developed that entails an overnight stimulation with LPS followed by a second proinflammatory stimulus, extracellular ATP, which drives inflammasome assembly and subsequent IL-1β release from the cells into the media.
In three independent experiments, THP1 macrophages stimulated by the two-hit model of inflammasome activation released IL-1β in control conditions.

Regarding `CCCCCCCCCC(=O)O` [DA, decanoic acid], in the experiment on SOX9 (setting [3]), the SOX9 expression entry is “increased SOX9 transcription”. The PGE2 release result in the experiment with PGE2 is recorded as “blocked the low-level activation seen in media controls”. Also, the “concentrations inhibiting PGE2 release” value with PGE2 (IL-1β 0.5 ng/mL) is “above 1 micromolar”. For the same compound, the “PGE2 inside of the cell” value with PGE2 (IL-1β 1 ng/ml, 6 hours, cell lysates) is given as “causes PGE2 to build up intracellularly”. Further, in the experiment with PGE2 (IL-1β 1 ng/ml, 6 hours, supernatant), the “PGE2 secreted into the cell culture media” value is recorded as “causes PGE2 secretion to be abrogated”. In the experiment on PGE2 (by 100 picomolar Dex), the “increase in potency of DA” value was determined as 2.2 ×. The “concentrations inhibiting PGD2 release” value in the experiment with prostaglandin D2 (PGD2) was “above 1 micromolar”. In experiment [1], the “expression of interleukin-18, tumor necrosis factor, interleukin-8, and interleukin-6” value is given as “reduced the expression”. Moreover, the “secreted PGI2 levels” value with prostaglandin I2 (PGI2) is given as “decreases secreted PGI2 levels”. Also, the “inhibition of COX-2 activity” value on Cyclooxygenase-2 (COX-2) was “no observed inhibition”. Moreover, in the experiment on arachidonic acid (AA), the “concentration of AA normalized to total protein” value is reported as “lower concentrations of AA than the Dex samples; also recorded: lower than that of the control with IL-1β”.

As for `CCCCCCCCCC(=O)O` [DA/Dec], the SOX9 expression result with SOX9 (setting [3]) was “increased expression of SOX9”.

As to `C[C@@H]1C[C@H]2[C@@H]3CCC4=CC(=O)C=C[C@]4(C)[C@@]3(F)[C@@H](O)C[C@]2(C)[C@@]1(O)C(=O)CO` [Dex, dexamethasone, reference compound], the “concentration with statistical significance, PGE2 release” value in experiment [2] (IL-1β, 48 h) is on record as 100 picomolar.

Take `C[C@@H]1C[C@H]2[C@@H]3CCC4=CC(=O)C=C[C@]4(C)[C@@]3(F)[C@@H](O)C[C@]2(C)[C@@]1(O)C(=O)COP(=O)(O)O` [Dxp, dexamethasone phosphate, reference compound]: the SOX9 expression entry is reported as “decreased expression of SOX9” in the experiment on SOX9 (setting [3]) and “temporal decrease in expression of SOX9” with SOX9 (setting [4]). In the experiment on MMP13 (setting [4]), the MMP13 transcription result is given as “reduce MMP13 transcription”.

Take `O=C(O)CCCCC1CCSS1` (stereo not drawn) [LA, α-lipoic acid]: the inhibition at 10 µM was 33% in [2] (96 h, rescue, 96-hour harvest, 28 mM Lac, 10 uM LA) and -59% in experiment [2] (setting [5]). Further, the SOX9 expression result in the experiment on SOX9 (setting [3]) is on record as “increased SOX9 transcription; also recorded: increases SOX9 relative expression”.

Consider `CCCCCCCCCC(=O)[O-].[Na+]` [decanoate, sodium decanoate], for which the “inhibition of PGE2 release” value in [2] (added at the same time as IL-1β, 24-hour harvest) came out at 53%; in [2] (added at the same time as IL-1β, 96-hour harvest), 76%; in experiment [2] (setting [5]), 41%; in [2] (pre-incubation, 96-hour harvest) it was 75%; in experiment [2] (rescue (added after overnight IL-1β activation), 24-hour harvest, 28 mM Lac, 10 uM LA), 72%; in [2] (rescue, 96-hour harvest, 28 mM Lac, 10 uM LA), 57%. In the experiment on SOX9 versus RUNX2, the “expression of SOX9 compared to RUNX2” value was 1.80+0.47. In addition, the “increase in potency of sodium decanoate” value with IL-1β release was 4.6 ×.

For “IL-1RA: IL-1 Receptor Antagonist, blocks IL-1β signaling [reference compound]”, the PGE2 release result with PGE2 is on record as “consistently higher than PGE2 levels in DA treated cells”.

Consider hyaluronic acid [HA], for which the “Observed Relative expression of MMP13” value in the experiment on MMP13 (14-day micromass pellet culture) is −1.6 fold; with MMP13 (28-day monolayer culture), 1.0 fold.
